Source: ChEMBL document CHEMBL3867480 (Bioorg Med Chem, 2016)
In brackets after ≈: the same amount, converted by molar mass.

Assays:
Stromelysin-2 = Stromelysin-2 (Homo sapiens, UniProt P09238); assay: Inhibition of recombinant human […]-activated MMP10 using Cy3-PLGLK(Cy5Q)AR-NH2 as substrate measured after 40 mins by spectrofluorimetric method
Neutrophil collagenase = Neutrophil collagenase (Homo sapiens, UniProt P22894); assay: Inhibition of recombinant human […]-activated MMP8 using Cy3-PLGLK(Cy5Q)AR-NH2 as substrate measured after 40 mins by spectrofluorimetric method
Neutrophil collagenase, sequence (P22894 whole entry): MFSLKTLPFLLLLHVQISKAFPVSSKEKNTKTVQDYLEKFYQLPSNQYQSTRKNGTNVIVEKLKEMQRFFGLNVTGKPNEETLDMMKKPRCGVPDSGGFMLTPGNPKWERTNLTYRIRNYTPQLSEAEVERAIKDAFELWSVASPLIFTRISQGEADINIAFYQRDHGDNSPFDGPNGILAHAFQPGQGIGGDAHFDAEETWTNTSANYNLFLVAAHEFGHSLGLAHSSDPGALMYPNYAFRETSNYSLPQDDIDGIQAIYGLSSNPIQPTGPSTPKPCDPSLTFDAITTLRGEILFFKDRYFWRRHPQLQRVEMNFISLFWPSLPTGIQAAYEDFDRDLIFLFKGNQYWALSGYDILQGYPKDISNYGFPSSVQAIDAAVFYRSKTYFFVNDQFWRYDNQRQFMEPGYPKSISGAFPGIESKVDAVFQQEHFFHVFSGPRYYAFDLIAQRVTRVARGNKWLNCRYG

[1] = molecular target: 72 kDa type IV collagenase (Homo sapiens, UniProt P08253); assay: Inhibition of recombinant human […]-activated MMP2 using Cy3-PLGLK(Cy5Q)AR-NH2 as substrate measured after 40 mins by spectrofluorimetric method
72 kDa type IV collagenase, sequence (P08253 whole entry): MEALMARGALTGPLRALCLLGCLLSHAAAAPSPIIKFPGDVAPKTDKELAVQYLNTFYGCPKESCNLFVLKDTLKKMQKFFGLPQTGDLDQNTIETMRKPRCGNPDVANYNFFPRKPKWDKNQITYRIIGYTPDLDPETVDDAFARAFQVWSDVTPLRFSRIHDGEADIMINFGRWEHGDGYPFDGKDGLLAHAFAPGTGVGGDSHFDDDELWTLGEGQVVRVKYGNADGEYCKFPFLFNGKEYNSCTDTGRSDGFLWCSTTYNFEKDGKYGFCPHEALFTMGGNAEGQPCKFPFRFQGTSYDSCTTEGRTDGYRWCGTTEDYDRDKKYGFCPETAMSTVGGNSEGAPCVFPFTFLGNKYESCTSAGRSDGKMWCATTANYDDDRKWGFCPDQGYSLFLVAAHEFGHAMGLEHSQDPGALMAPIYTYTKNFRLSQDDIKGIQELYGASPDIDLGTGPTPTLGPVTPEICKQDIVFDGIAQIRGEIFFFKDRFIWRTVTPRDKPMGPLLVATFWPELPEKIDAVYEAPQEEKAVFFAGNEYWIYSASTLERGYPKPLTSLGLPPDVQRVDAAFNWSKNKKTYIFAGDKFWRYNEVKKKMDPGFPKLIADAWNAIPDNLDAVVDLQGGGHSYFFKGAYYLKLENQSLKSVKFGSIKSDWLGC

Collagenase 3 = Collagenase 3 (Homo sapiens, UniProt P45452)
Description: Inhibition of recombinant human AMPA-activated MMP13 using Cy3-PLGLK(Cy5Q)AR-NH2 as substrate measured after 40 mins by spectrofluorimetric method

[2] = Solubility of the compound at pH 6.8; assay type: physicochemical; settings: buffer
[3] = Volume of distribution in rat at 0.1 mg/kg, iv or 1 mg/kg, po; assay type: ADME, organism-based; settings: in vivo
[4] = Oral bioavailability in rat at 1 mg/kg; assay type: ADME, organism-based; settings: in vivo
Stromelysin-1 = Stromelysin-1 (Homo sapiens, UniProt P08254); assay: Inhibition of recombinant human […]-activated MMP3 using Cy3-PLGLK(Cy5Q)AR-NH2 as substrate measured after 40 mins by spectrofluorimetric method
Stromelysin-1, sequence (P08254 whole entry): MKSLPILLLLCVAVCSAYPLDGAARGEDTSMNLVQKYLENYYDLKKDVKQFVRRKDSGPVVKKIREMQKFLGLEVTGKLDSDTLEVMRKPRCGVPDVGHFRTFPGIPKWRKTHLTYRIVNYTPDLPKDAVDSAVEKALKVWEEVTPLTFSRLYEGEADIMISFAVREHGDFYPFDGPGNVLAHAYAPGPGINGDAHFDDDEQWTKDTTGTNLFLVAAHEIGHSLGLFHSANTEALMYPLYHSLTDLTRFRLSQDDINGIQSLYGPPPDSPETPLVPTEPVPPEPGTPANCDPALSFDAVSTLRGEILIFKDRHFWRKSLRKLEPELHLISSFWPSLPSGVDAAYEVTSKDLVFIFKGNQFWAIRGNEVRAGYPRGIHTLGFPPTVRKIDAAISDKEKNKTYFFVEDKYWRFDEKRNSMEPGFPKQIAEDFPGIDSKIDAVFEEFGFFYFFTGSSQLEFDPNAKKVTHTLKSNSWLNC

[5] = Clearance in rat at 0.1 mg/kg, iv or 1 mg/kg, po; assay type: ADME, organism-based; settings: in vivo
[6] = Clearance in rat liver microsomes; assay type: ADME; settings: read-out: CLH
Matrilysin = molecular target: T1, Matrilysin (Homo sapiens, UniProt P09237); assay: Inhibition of recombinant human […]-activated MMP7 using Cy3-PLGLK(Cy5Q)AR-NH2 as substrate measured after 40 mins by spectrofluorimetric method
T1 sequence (P09237 whole entry): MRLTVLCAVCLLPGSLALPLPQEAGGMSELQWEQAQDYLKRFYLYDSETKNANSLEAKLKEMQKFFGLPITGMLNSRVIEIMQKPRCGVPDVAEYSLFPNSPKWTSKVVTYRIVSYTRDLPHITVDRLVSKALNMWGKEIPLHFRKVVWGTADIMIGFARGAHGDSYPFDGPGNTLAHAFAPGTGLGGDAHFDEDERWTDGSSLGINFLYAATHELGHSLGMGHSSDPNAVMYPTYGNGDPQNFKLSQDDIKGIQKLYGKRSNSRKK

[7] = Permeability of the compound at pH 7.4 by PAMPA assay; assay type: ADME; settings: read-out: permeability
[8] = molecular target: Matrix metalloproteinase-14 (Homo sapiens, UniProt P50281); assay: Inhibition of recombinant human GST-tagged MMP14 using Cy3-PLGLK(Cy5Q)AR-NH2 as substrate measured after 40 mins by spectrofluorimetric method
[9] = molecular target: Matrix metalloproteinase-9 (Homo sapiens, UniProt P14780); assay: Inhibition of recombinant human […]-activated MMP9 using Cy3-PLGLK(Cy5Q)AR-NH2 as substrate measured after 40 mins by spectrofluorimetric method
Matrix metalloproteinase-9, sequence (P14780 whole entry): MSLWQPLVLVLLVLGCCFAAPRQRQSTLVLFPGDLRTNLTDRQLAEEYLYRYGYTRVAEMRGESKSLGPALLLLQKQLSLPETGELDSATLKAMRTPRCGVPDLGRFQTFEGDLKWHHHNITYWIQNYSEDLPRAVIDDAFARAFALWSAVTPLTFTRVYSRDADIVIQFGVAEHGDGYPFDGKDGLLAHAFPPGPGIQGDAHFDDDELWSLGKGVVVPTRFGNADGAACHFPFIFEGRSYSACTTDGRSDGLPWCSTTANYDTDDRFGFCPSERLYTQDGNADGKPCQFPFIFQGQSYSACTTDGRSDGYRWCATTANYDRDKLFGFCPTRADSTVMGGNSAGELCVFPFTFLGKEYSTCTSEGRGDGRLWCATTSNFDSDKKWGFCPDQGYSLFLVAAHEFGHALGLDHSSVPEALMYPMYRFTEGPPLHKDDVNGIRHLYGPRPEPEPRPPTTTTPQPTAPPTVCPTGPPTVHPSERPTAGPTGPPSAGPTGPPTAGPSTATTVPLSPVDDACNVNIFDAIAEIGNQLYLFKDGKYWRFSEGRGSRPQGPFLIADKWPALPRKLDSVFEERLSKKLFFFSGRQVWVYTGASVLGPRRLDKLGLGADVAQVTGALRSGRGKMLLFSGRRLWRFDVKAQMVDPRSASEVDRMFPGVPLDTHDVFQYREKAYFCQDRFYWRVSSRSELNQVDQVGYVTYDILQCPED

[10] = Clearance in human liver microsomes; assay type: ADME; settings: read-out: CLH
Interstitial collagenase = molecular target: T2, Interstitial collagenase (Homo sapiens, UniProt P03956); assay: Inhibition of recombinant human […]-activated MMP1 using Cy3-PLGLK(Cy5Q)AR-NH2 as substrate measured after 40 mins by spectrofluorimetric method
T2 sequence (P03956 whole entry): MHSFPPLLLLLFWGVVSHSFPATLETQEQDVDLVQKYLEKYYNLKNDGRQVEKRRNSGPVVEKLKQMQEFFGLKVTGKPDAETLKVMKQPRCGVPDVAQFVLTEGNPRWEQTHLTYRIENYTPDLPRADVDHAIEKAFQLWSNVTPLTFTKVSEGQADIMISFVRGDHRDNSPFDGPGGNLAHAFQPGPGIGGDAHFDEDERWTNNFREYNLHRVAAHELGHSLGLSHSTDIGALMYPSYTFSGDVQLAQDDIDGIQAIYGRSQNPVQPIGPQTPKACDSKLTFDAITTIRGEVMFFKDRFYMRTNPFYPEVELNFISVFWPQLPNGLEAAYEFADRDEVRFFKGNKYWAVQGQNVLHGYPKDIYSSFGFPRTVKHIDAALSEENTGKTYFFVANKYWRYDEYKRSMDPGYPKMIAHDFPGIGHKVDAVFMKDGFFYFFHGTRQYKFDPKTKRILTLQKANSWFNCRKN

[11] = molecular target: Macrophage metalloelastase (Homo sapiens, UniProt P39900); assay: Inhibition of recombinant human […]-activated MMP12 using Cy3-PLGLK(Cy5Q)AR-NH2 as substrate measured after 40 mins by spectrofluorimetric method
Macrophage metalloelastase, sequence (P39900 whole entry, the tested form may be a part): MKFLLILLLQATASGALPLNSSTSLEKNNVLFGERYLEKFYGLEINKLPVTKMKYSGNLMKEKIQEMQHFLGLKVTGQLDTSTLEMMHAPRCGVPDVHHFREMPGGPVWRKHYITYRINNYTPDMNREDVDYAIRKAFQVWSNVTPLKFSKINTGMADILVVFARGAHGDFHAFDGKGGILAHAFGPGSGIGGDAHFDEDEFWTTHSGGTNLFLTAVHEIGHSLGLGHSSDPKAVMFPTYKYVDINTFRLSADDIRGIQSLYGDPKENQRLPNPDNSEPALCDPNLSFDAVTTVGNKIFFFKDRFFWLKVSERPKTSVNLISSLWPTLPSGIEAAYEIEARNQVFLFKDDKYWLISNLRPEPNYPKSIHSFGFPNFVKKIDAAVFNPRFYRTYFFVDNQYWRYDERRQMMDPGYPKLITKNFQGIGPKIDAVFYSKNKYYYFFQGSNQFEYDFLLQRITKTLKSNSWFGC

[12] = molecular target: Disintegrin and metalloproteinase domain-containing protein 17 (Homo sapiens, UniProt P78536); assay: Inhibition of recombinant human TACE using Cy3-PLAQAV(Cy5Q-L-2,3-diaminopropionic acid)-RSSSR-NH2 as substrate measured after 40 mins by spectrofluorimetric method
Disintegrin and metalloproteinase domain-containing protein 17, sequence (P78536 whole entry, the tested form may be a part): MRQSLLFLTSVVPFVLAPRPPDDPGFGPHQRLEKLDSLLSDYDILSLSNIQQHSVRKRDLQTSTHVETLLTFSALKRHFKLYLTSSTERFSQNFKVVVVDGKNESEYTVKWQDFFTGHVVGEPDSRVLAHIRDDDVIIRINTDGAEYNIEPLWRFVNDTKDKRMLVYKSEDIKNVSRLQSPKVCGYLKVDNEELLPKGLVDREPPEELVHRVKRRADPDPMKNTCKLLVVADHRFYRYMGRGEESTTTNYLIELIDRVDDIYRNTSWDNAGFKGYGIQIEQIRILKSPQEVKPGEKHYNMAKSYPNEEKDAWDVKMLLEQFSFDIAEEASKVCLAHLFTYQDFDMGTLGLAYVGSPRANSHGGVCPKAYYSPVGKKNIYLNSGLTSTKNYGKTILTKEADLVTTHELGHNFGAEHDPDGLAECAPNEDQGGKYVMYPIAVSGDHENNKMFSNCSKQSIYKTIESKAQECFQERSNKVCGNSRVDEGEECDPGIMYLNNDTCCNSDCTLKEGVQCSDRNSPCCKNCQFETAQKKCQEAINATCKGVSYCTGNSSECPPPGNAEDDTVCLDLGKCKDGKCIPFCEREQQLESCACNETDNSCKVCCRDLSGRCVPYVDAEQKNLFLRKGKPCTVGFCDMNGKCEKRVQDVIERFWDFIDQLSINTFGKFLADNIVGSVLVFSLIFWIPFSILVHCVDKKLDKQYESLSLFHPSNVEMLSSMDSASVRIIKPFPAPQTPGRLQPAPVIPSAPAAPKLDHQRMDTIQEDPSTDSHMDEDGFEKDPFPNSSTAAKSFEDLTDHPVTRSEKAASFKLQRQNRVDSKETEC

CYP3A4 = CYP3A4 (Homo sapiens, UniProt P08684); assay: Inhibition of CYP3A4 (unknown origin) at 10 uM; assay type: ADME
CYP3A4, sequence (P08684 whole entry): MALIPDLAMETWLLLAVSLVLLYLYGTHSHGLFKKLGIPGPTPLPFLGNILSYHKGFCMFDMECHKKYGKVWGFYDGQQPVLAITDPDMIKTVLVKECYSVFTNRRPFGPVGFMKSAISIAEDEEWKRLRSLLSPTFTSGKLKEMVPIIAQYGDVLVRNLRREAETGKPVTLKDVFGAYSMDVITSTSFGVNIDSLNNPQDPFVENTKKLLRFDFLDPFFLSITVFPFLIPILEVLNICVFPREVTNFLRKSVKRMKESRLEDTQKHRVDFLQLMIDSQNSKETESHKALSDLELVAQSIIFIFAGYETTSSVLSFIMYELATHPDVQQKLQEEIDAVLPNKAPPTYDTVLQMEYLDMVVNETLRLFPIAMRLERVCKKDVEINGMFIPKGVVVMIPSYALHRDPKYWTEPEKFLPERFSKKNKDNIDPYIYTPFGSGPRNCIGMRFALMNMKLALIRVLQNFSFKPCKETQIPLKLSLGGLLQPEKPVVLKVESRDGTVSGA

Stromelysin-2, sequence (P09238 whole entry): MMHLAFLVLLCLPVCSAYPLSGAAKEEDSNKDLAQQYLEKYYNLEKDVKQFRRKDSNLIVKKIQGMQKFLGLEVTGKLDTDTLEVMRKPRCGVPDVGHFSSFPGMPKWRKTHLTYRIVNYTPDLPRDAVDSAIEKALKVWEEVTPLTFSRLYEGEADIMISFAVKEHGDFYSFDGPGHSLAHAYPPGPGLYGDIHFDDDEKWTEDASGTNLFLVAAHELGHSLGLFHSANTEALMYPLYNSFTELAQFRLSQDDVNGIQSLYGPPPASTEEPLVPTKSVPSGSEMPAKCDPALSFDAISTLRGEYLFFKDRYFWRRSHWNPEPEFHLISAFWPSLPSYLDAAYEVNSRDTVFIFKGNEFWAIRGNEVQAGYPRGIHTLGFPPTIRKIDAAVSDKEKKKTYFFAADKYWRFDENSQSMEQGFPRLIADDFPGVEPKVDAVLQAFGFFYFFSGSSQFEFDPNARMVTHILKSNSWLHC

Row | Compound | IC50 (Stromelysin-2) [nM] | IC50 (Neutrophil collagenase) [nM] | IC50 [1] [nM] | IC50 (Collagenase 3) [nM] | solubility [2] [µg/mL] | Vd [3] [L/kg] | bioavailability [4] [%] | IC50 (Stromelysin-1) [nM] | clearance [5] [mL/min/kg] | microsomal CLint [6] [µL/min/mg] | IC50 (Matrilysin) [nM] | Papp [7] [×10⁻⁶ cm/s] | IC50 [8] [nM] | IC50 [9] [nM] | microsomal CLint [10] [µL/min/mg] | IC50 (Interstitial collagenase) [nM] | IC50 [11] [nM] | IC50 [12] [nM] | inhibition at 10 µM (CYP3A4) [%]
1 | O=C(NCc1cccc(N2CCN(C(=O)Cc3cc(=O)[nH][nH]3)CC2)c1)c1nc2ccccc2c(=O)[nH]1 | < 10 | < 10 | < 10 | 0.36 | – | – | – | – | – | – | – | – | – | – | – | – | – | – | –
2 | COc1cccc(CNC(=O)c2nc3scc(-c4cccc(Cl)c4)c3c(=O)[nH]2)c1 | 6300 | > 10000 | 2600 | 0.12 | – | – | – | – | – | – | – | – | – | – | – | – | – | – | –
3 | O=C(NCc1cccc(-c2ccc(CS(=O)(=O)Cc3n[nH]c(=O)[nH]3)cc2)c1)c1nc2scc(-c3cccc(Cl)c3)c2c(=O)[nH]1 | 34 | 1000 | 86 | 0.38 | – | – | – | – | – | – | – | – | – | – | – | – | – | – | –
4 | O=C(NCc1cccc(-c2ccc(CS(=O)(=O)Cc3n[nH]c(=O)[nH]3)cc2)c1)c1nc2ccccc2c(=O)[nH]1 | 150 | 12 | 23 | 0.071 | 0.48 (≈ 0.905 µM) | 0.32 | 1.3 | 2400 | 5.38 | 13 | > 10000 | 0.7 | > 10000 | > 10000 | 7 | > 10000 | 9500 | > 10000 | 29
5 | CC(C)[C@H](NS(=O)(=O)c1ccc(-c2cccc(CNC(=O)c3nc4ccccc4c(=O)[nH]3)c2)cc1)C(=O)O | 2.4 | 8.9 | 8.3 | 0.17 | – | – | – | 30 | – | – | 1000 | – | 140 | 36 | – | 3400 | 16 | > 10000 | –
6 | CC(C)C(CS(=O)(=O)c1ccc(-c2cccc(CNC(=O)c3nc4ccccc4c(=O)[nH]3)c2)cc1)N(O)C(N)=O (stereo not given) | < 10 | 19 | < 10 | 0.26 | – | – | – | – | – | – | – | – | – | – | – | – | – | – | –
7 | CC(C)[C@H](NS(=O)(=O)c1ccc(-c2cccc(CNC(=O)c3nc4ccccc4c(=O)[nH]3)c2)cc1)C(=O)NO | 0.3 | 0.82 | 1.9 | 0.0032 | – | – | – | 1.5 | – | – | 7.3 | – | 3.8 | 4.7 | – | 11 | 8.1 | > 10000 | –
8 | O=C(NCc1cccc(N2CCN(C(=O)Cc3nnn[nH]3)CC2)c1)c1nc2ccccc2c(=O)[nH]1 | 640 | 32 | 160 | 1.5 | – | – | – | – | – | – | – | – | – | – | – | – | – | – | –
9 | O=C(NCc1cccc(OCCCS(=O)(=O)N2CCCCC2C(=O)NO)c1)c1nc2ccccc2c(=O)[nH]1 (stereo not given) | 2.6 | 1.2 | 0.57 | 0.052 | – | – | – | 2.6 | – | – | 2000 | – | 550 | 72 | – | > 10000 | 1.8 | 510 | –
10 | COc1cccc(CNC(=O)c2nc3ccccc3c(=O)[nH]2)c1 | – | – | – | 5.6 to 12 | – | – | – | – | – | – | – | – | – | – | – | – | – | – | –
11 | O=C(NCc1cccc(OCCCOc2nc[nH]n2)c1)c1nc2ccccc2c(=O)[nH]1 | 220 | 22 | 32 | 0.59 | – | – | – | – | – | – | – | – | – | – | – | – | – | – | –
12 | CC(=O)N(O)C(CS(=O)(=O)c1ccc(-c2cccc(CNC(=O)c3nc4ccccc4c(=O)[nH]3)c2)cc1)C(C)C (stereo not given) | 64 | 110 | 65 | 0.3 | 0.93 (≈ 1.65 µM) | – | < 1 | – | < 0.0167 | 250 | – | 45.2 | – | – | 250 | – | – | – | 99
13 | CCOCCC1(Oc2ccc(-c3cccc(CNC(=O)c4nc5ccccc5c(=O)[nH]4)c3)cc2)C(=O)NC(=O)NC1=O | 930 | 56 | 110 | 0.23 | 9.1 (≈ 16 µM) | 0.054 | 32 | 3300 | 0.35 | – | > 10000 | 9.5 | 3700 | 1600 | 12 | > 10000 | 540 | > 10000 | 22
14 | O=C(NCc1cccc(OCCCOc2nc[nH]n2)c1)c1nc2scc(-c3cccc(Cl)c3)c2c(=O)[nH]1 | 820 | > 1000 | 510 | – | – | – | – | – | – | – | – | – | – | – | – | – | – | – | –
15 | O=C(NCc1cccc(OCCCS(=O)(=O)N2CCCCC2C(=O)O)c1)c1nc2ccccc2c(=O)[nH]1 (stereo not given) | 240 | 14 | 14 | 0.24 | – | – | – | 370 | – | – | > 10000 | – | > 10000 | > 10000 | – | > 10000 | 300 | > 10000 | –
16 | O=C1NC(=O)C(CC(=O)N2CCN(c3cccc(CNC(=O)c4nc5ccccc5c(=O)[nH]4)c3)CC2)N1 (stereo not given) | < 10 | < 10 | < 10 | 0.19 | – | – | – | – | – | – | – | – | – | – | – | – | – | – | –
17 | CC(C)C(CS(=O)(=O)c1ccc(-c2cccc(CNC(=O)c3nc4ccccc4c(=O)[nH]3)c2)cc1)N(O)C=O (stereo not given) | 0.35 | 1.3 | 3 | 0.051 | – | – | – | 2.5 | – | – | 30 | – | 5.4 | 5.3 | – | 18 | 8.5 | > 10000 | –
18 | O=C(NCc1cccc(N2CCN(C(=O)Cc3c[nH]cn3)CC2)c1)c1nc2ccccc2c(=O)[nH]1 | 460 | 45 | 120 | 1.7 | – | – | – | – | – | – | – | – | – | – | – | – | – | – | –
19 | O=C(NCc1cccc(N2CCN(C(=O)Cc3n[nH]c(=O)[nH]3)CC2)c1)c1nc2ccccc2c(=O)[nH]1 | 6.2 | 3.9 | 10 | 0.11 | – | – | – | 23 | – | – | > 10000 | – | 8900 | 2900 | – | > 10000 | 260 | > 10000 | –
